The record followed here is patent publication US20190314198A1, “Topical Ocular Delivery Methods and Devices for Use in the Same” (Kedalion Therapeutics, Inc., priority 2018, published 2019).

Experiment [1] deals with patients diagnosed with primary open angle glaucoma. Kind of experiment: Trial 2: intraocular pressure reduction (Goldmann applanation tonometry), AcuStream versus standard eye dropper. The format is in vivo, human. The procedure: Trial 2 compared the efficacy (dose volume equivalence) of 0.005% w/v latanoprost for intraocular pressure reduction when delivered via AcuStream™ (pre-trial calibration volume=9.2 μl) versus the standard eye dropper for topical drug delivery (approximate volume=30 μl).
Patients included in Trial 2 have previously been diagnosed with primary open angle glaucoma on the basis of intraocular pressure and visual field testing, fundus examination or optical coherence tomography (OCT) data and are currently on prostaglandin analog medical therapy. Patients with corneal abnormalities that would interfere with accurate IOP measurements with applanation tonometry, use of an oral or topical ophthalmic steroids within the past 14 days from screening date, any active ocular surface or anterior segment disease, or progressive field loss during the past year were excluded from the study. Thirteen men and five women participated in the trial. […]
After performing slit lamp examinations on each patient to verify eligibility and obtaining informed consent, intraocular pressure (IOP) was measured by a sole experienced examiner who was blind to the randomized conditions. […]
Latanoprost solution was administered by a sole ophthalmologist to both eyes of each patient, based on the pre-determined randomized condition.

In experiment [2] the test system is eye of subjects. The experiment is described as follows: Presbyopia: pupil diameter after self-administered pilocarpine micro-dose. The format is in vivo, human. On the procedure: A 10 μl micro-dose of a 1% pilocarpine solution was self-administered using an electromagnetic actuated fluid delivery device, e.g., as described above, by three subjects to their own eye. The age range of the subjects was 52 years to 68 years, and all subjects were male. The pilocarpine micro-dose was self-administered by the subjects.
Baseline, pre-dose values of pupil diameter and near visual acuity in both eyes prior to dosing was measured for all subjects, and then following the baseline measurements, the subjects were dosed in only one eye (the eye with the poorer visual acuity) with the micro-dose pilocarpine solution. Approximately 45 to 60 minutes after dosing, pupil diameter and near visual acuity were again tested. Near visual acuity was measured using a Snellen card at a distance of 40 cm. A tabulation of results is given below in Table A.

On to `CC(C)OC(=O)CCC/C=C\C[C@@H]1[C@@H](CC[C@@H](O)CCc2ccccc2)[C@H](O)C[C@@H]1O` [latanoprost], for which the “difference in IOP reduction between AcuStream and standard dropper groups” value in experiment [1] (Wilcoxon Ranked Sum test, p=0.3447) is reported as “no statistically significant differences”. Further, the “post-instillation IOP of a single patient outlier (OD)” value in experiment [1] (control group (standard eye dropper), baseline IOP 30 mm Hg) is 17 mm Hg.
As for `CC[C@@H]1C(=O)OC[C@@H]1Cc1cncn1C` [pilocarpine], the “mean reduction in pupil diameter” value in experiment [2] (dosed eye, 10 μl micro-dose of 1% solution, all 3 subjects) is listed as 0.70 mm. The “miotic effect in the non-dosed eye” value in experiment [2] (non-dosed contralateral eye) was “no miotic effect”.
